Measurements as given in patent US12428408B2, “Fused heterocyclic mescaline derivatives” (Enveric Biosciences Canada Inc., priority 2022, dated 2025).
Where two headings read alike, the source gives them in different places.

What was measured:
5-HT1A receptor [1] = target: T1, 5-HT1A receptor (Homo sapiens, UniProt P08908); experiment: 5-HT1A receptor radioligand competition assay (SPA); format: binding
T1 construct: purchased Perkin Elmer 6110501400UA
T1 sequence (P08908 1-422): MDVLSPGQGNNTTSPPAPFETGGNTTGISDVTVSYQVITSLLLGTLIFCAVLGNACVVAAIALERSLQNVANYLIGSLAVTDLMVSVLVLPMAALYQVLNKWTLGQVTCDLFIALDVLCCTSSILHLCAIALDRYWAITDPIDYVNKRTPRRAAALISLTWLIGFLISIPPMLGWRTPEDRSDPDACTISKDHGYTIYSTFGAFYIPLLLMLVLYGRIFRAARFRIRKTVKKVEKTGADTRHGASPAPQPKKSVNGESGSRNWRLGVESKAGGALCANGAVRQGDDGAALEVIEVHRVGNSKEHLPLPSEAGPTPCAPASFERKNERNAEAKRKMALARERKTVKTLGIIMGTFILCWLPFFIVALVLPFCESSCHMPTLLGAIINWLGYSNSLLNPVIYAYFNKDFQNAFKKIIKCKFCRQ

[2] = target: T2, human serotonin transporter (SERT) (Homo sapiens, UniProt P31645); experiment: biochemical; format: binding
T2 construct: purchased PerkinElmer RBHSTM400UA
T2 sequence (P31645 whole entry): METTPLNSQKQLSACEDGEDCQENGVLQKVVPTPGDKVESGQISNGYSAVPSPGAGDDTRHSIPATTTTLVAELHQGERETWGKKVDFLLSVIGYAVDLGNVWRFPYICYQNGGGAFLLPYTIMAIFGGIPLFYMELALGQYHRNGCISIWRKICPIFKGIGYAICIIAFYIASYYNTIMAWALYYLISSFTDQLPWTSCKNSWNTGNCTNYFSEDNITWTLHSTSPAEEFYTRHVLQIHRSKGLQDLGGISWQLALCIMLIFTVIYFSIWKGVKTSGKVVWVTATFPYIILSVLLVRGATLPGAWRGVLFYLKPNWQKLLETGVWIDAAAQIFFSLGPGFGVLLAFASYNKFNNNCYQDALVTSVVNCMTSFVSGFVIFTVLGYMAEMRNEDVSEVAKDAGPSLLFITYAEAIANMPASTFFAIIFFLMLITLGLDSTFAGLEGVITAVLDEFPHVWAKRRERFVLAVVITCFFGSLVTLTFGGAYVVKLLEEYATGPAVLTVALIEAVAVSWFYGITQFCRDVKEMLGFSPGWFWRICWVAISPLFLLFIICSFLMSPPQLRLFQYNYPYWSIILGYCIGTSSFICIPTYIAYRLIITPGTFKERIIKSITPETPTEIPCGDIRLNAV

5-HT1B (h) = target: T3, 5-HT1B (h) (Homo sapiens, UniProt P28222); experiment: Competition assay to measure binding affinity at 5-HT1B receptor; details: test ligand 10 μM; [3H]GR125743 1 nM
T3 construct: host or cells: Chem-1 (RBL) cells

5-HT1D (r) = target: T4, 5-HT1D (r) (Rattus norvegicus, UniProt P28565); experiment: Competition assay to measure binding affinity at 5-HT1D receptor; details: test ligand 10 μM; [3H]serotonin 1 nM
T4 construct: host or cells: CHO cells
T4 sequence (P28565 whole entry): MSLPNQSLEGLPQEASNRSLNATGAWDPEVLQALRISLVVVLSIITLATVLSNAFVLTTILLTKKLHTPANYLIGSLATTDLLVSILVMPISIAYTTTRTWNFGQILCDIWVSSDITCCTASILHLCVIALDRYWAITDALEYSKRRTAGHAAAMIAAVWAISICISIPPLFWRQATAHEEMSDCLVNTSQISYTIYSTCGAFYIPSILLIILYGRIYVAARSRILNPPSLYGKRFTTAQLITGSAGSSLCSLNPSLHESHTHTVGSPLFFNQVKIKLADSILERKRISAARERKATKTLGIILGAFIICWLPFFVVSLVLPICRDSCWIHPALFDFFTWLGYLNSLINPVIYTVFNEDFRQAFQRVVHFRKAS

5-HT2B (h) = target: T5, 5-HT2B (h) (Homo sapiens, UniProt P41595); experiment: Competition assay to measure binding affinity at 5-HT2B receptor; details: test ligand 10 μM; [3H]mesulergine 2 nM
T5 construct: host or cells: CHO cells
T5 sequence (P41595 whole entry): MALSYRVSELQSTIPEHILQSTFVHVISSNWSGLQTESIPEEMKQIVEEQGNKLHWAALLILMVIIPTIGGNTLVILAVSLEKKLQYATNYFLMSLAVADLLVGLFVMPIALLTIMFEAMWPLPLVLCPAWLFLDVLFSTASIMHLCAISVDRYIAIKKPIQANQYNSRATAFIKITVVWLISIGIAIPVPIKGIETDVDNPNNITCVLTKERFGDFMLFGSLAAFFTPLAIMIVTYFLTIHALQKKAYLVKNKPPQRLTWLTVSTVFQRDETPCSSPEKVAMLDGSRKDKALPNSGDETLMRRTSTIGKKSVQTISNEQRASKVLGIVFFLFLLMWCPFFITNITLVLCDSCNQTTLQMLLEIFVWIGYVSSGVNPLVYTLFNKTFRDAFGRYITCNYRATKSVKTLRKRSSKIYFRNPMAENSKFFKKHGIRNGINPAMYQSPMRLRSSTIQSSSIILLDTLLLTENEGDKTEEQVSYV

5-HT2C (h) = target: T6, 5-HT2C (h) (Homo sapiens, UniProt P28335); experiment: Competition assay to measure binding affinity at 5-HT2C receptor; details: test ligand 10 μM; [125I](±)DOI 0.1 nM
T6 construct: host or cells: HEK-293 cells
T6 sequence (P28335 33-458): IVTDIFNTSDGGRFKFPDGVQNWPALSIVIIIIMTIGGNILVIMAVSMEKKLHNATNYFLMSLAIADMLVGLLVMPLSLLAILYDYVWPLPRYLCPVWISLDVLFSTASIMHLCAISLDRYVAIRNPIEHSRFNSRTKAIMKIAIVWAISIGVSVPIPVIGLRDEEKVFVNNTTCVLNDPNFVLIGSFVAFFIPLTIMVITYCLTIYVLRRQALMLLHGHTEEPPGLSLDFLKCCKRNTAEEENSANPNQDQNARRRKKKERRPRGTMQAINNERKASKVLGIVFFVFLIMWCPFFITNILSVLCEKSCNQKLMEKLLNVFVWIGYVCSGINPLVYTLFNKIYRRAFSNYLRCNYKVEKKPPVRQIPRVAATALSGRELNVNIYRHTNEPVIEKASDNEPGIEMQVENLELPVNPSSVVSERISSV

5-HT7 (h) = target: T7, 5-HT7 (h) (Homo sapiens, UniProt P34969); experiment: Competition assay to measure binding affinity at 5-HT7 receptor; details: test ligand 10 μM; [3H]LSD 4 nM
T7 construct: host or cells: HEK-293 cells
T7 sequence (P34969 whole entry): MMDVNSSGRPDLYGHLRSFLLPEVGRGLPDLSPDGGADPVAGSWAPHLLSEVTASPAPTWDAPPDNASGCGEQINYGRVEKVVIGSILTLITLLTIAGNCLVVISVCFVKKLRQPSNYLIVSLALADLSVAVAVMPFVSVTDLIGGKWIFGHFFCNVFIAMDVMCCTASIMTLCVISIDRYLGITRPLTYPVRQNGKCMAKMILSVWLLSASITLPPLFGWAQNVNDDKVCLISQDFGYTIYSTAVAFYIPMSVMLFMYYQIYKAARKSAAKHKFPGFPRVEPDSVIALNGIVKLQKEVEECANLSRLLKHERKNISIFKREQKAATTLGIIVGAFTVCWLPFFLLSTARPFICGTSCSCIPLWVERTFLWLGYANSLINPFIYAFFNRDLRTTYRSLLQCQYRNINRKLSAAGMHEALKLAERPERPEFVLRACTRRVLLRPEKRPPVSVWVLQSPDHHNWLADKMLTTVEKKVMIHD

alpha2A (h) = target: T8, alpha2A (h) (Homo sapiens, UniProt P08913); experiment: Competition assay to measure binding affinity at alpha2A receptor; details: test ligand 10 μM; [3H]RX 821002 1 nM; read-out: α-2A, percent of control-specific binding
T8 construct: host or cells: CHO cells
T8 sequence (P08913 1-465): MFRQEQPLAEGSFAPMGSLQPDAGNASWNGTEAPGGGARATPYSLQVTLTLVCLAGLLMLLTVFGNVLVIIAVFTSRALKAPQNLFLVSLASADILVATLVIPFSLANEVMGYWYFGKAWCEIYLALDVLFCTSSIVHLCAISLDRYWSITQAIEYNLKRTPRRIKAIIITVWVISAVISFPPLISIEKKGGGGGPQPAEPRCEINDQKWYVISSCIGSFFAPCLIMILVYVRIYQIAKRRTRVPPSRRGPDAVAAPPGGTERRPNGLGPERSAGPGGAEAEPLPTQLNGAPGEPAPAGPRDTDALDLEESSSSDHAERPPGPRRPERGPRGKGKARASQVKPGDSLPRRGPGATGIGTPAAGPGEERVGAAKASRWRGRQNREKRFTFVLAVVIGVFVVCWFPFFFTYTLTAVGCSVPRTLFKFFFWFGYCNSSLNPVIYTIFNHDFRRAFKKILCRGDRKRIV

D2 (h) = target: T9, D2 (h) (Homo sapiens, UniProt P14416); experiment: Competition assay to measure binding affinity at D2L receptor; details: test ligand 10 μM; [3H]methylspiperone 0.3 nM
T9 construct: host or cells: HEK-293 cells
T9 sequence (P14416 whole entry): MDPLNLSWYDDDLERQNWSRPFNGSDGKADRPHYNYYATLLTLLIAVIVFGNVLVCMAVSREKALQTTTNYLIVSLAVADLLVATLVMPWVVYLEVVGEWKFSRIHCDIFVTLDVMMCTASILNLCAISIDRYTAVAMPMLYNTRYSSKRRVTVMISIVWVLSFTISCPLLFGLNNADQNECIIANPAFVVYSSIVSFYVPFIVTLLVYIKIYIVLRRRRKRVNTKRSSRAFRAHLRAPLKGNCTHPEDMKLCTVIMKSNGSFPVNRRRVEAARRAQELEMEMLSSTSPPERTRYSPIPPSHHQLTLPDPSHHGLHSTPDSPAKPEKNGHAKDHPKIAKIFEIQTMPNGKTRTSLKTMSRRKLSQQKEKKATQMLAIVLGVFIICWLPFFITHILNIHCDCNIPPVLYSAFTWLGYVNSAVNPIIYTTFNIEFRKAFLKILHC

D3 (h) = target: T10, D3 (h) (Homo sapiens, UniProt P35462); experiment: Competition assay to measure binding affinity at D3 receptor; details: test ligand 10 μM; [3H]methylspiperone […]
T10 construct: host or cells: CHO cells
T10 sequence (P35462 whole entry): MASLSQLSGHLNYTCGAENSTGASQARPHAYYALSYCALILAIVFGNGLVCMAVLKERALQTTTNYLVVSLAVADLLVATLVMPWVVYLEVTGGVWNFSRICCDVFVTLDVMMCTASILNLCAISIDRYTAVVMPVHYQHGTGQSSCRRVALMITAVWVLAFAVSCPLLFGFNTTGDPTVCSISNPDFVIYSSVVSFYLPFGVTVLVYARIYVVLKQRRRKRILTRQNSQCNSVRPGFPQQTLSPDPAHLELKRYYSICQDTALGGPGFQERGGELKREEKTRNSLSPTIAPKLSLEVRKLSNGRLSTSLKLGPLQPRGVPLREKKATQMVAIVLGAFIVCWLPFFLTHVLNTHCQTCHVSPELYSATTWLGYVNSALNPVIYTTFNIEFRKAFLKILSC

DAT (h) = target: T11, DAT (h) (Homo sapiens, UniProt Q01959); experiment: Competition assay to measure binding affinity at dopamine transporter (DAT); details: test ligand 10 μM; [3H]BTCP 4 nM
T11 construct: host or cells: CHO cells
T11 sequence (Q01959 whole entry): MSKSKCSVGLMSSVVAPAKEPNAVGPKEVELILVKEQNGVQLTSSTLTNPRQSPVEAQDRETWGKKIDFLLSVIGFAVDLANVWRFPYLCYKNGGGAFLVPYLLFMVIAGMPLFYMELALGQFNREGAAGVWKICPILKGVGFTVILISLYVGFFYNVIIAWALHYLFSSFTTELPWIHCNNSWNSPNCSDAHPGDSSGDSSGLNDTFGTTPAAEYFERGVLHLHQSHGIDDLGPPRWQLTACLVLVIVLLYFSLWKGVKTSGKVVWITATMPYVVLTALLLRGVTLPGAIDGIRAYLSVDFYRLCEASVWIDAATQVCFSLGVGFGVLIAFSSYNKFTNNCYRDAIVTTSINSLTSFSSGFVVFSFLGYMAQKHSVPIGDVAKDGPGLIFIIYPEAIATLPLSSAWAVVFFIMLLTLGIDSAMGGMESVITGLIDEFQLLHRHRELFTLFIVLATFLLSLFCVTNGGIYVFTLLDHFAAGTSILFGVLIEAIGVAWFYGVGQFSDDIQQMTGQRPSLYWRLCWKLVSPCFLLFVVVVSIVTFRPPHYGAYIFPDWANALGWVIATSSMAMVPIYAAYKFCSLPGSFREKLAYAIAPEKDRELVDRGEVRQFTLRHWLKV

MT1 (ML1A) (h) = target: T12, MT1 (ML1A) (h) (Homo sapiens, UniProt P48039); experiment: Competition assay to measure binding affinity at MT1 receptor; details: test ligand 10 μM; [125I]2-iodomelatonin 0.01 nM
T12 construct: host or cells: CHO cells
T12 sequence (P48039 whole entry): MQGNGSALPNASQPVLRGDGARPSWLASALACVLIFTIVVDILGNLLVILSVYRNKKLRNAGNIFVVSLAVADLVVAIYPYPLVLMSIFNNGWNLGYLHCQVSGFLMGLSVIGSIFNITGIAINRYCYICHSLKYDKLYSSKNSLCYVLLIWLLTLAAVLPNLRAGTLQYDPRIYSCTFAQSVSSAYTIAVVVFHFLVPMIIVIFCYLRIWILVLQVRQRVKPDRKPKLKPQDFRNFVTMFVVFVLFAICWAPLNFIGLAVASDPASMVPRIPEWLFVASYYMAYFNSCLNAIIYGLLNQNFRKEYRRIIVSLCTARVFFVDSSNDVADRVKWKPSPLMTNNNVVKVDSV

NET (h) = target: T13, NET (h) (Homo sapiens, UniProt P23975); experiment: Competition assay to measure binding affinity at norepinephrine transporter (NET); details: test ligand 10 μM; [3H]nisoxetine 1 nM
T13 construct: host or cells: CHO cells
T13 sequence (P23975 whole entry): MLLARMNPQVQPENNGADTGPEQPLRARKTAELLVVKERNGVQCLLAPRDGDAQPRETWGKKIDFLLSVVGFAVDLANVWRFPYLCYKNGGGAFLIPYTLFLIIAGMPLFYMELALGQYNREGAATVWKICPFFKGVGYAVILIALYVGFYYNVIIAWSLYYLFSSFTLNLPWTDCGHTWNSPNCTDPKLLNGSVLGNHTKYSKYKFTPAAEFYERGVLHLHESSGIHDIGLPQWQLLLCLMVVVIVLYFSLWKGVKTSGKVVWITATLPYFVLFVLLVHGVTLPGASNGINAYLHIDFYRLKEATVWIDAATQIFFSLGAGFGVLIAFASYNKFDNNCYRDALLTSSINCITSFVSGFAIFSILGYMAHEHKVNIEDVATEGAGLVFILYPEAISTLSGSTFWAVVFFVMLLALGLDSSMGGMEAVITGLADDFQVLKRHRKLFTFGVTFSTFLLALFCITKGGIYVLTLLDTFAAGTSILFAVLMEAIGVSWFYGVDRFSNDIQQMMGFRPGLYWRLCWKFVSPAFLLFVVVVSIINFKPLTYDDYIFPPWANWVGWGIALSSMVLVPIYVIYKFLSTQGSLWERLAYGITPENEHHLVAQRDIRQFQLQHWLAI

5-HT2A receptor = 5-HT2A receptor (Homo sapiens, UniProt P28223); experiment: 5-HT2A receptor radioligand competition assay (SPA)
5-HT2A receptor, sequence (P28223 whole entry): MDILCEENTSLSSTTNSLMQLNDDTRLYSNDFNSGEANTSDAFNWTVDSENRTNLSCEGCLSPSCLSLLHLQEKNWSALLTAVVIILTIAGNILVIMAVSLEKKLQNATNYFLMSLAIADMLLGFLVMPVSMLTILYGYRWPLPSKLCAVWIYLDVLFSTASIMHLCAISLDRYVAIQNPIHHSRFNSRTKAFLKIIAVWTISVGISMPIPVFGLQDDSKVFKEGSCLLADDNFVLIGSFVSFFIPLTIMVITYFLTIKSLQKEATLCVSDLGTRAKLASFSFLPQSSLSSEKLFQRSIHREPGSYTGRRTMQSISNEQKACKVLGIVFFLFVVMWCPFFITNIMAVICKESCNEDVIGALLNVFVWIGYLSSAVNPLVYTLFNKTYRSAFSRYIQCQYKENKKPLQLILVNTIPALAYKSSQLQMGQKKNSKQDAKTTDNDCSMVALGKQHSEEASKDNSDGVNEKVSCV

5-HT1A receptor [3] = target: T1, 5-HT1A receptor; experiment: Functional 5-HT1A receptor cAMP assay in CHO-K1/5-HT1A/Gα15 cells; format: cell-based; details: +5-HT1A cells, 4 μM forskolin, FIGS. 37B-37H
[4] = competition with 0.5 nM 8-hydroxy-DPAT [3H], test compound 3 nM to 1 mM, read-out: 5-HT1A, Ki

Compound	Ki (5-HT1A receptor [1]; [4]) [nM]	Ki [2] [µM]	HT1B, percent of control-specific binding (5-HT1B (h)) [%]	HT1D, percent of control-specific binding (5-HT1D (r)) [%]	HT2B, percent of control-specific binding (5-HT2B (h)) [%]	HT2C, percent of control-specific binding (5-HT2C (h)) [%]	HT7, percent of control-specific binding (5-HT7 (h)) [%]	inhibition at 10 µM (alpha2A (h)) [%]	D2, percent of control-specific binding (D2 (h)) [%]	D3, percent of control-specific binding (D3 (h)) [%]	DAT, percent of control-specific binding (DAT (h)) [%]	MT1, percent of control-specific binding (MT1 (ML1A) (h)) [%]	NET, percent of control-specific binding (NET (h)) [%]	Ki (5-HT2A receptor) [µM]	Ki (5-HT1A receptor [1]) [nM]	5-HT1A receptor engagement (change in cAMP levels), in words (5-HT1A receptor [3])
CC(Cc1ccc2c(c1)OCCO2)N1CC(NC(=O)OC(C)(C)C)C1 (stereo not drawn) [A(XVI)]	1400	58.1	27	37	90	79	62	86	21	82	16	3	24	39		
O=C(Cc1cc2c(cc1Br)OCO2)NCCO [A(XIX)]	586000	> 1000	0	0	7	22	1	10	0	0	0	15	0	18.8		
COc1cc2c(cc1CNC(C)Cc1ccc3c(c1)OCCO3)OCO2 (stereo not drawn) [A(X)]		2.36	0	10	89	63	59	81	13	25	84	15	49	12	1100	
COc1cc2c(cc1CNC(C)Cc1ccc3c(c1)OCO3)OCO2 (stereo not drawn) [A(V)]		1.28	0	0	92	90	68	74	19	23	84	23	83	19	1880	
CC(Cc1ccc2c(c1)OCO2)N1CCC1 (stereo not drawn) [A(II)]		1.87	17	43	84	94	59	60	13	56	86	3	77	13	926	
CC(Cc1ccc2c(c1)OCCO2)NCc1cc2c(cc1Br)OCO2 (stereo not drawn) [A(IX)]		0.223	1	83	97	88	72	82	35	45	75	24	47	19	986	
CN(C)CCc1c[nH]c2cccc(O)c12 [psilocin]																reduction in cAMP levels
CC(Cc1ccc2c(c1)OCCO2)NC1CCC1 (stereo not drawn) [A(XVII)]		1.71	0	0	47	20	24	64	2	19	84	1	18	188	23300	
CC(Cc1ccc2c(c1)OCO2)N1CCOCC1 (stereo not drawn) [A(III)]		26.3	0	0	13	3	3	32	12	9	9	0	0	42	38600	
CC(Cc1ccc2c(c1)OCO2)NN(C)C (stereo not drawn) [A(VIII)]	19600	22.6	0	0	67	79	17	8	12	18	38	33	2	3.38		
CC(Cc1ccc2c(c1)OCCO2)NCc1ccc2c(c1)OCO2 (stereo not drawn) [A(XII)]		2.39	0	24	86	31	51	66	26	58	92	6	69	26	1200	
